Experimental data reported in patent US20040209318A1, “Reagents and methods for the detection and quantification of vancomycin in bilogical fluids” (priority 1995, published 2004).
Where two headings read alike, the source gives them in different places.

Key:
[1] = target: anti-vancomycin Fab fragment; assay: BIAcore solution competition, equilibrium dissociation constant; type: binding, mouse
Procedure: Biosensor surfaces were regenerated after each injection with successive 1 minute pulses of 6 M, 6M, and 1.5 M guanidine hydrochloride. Initial rates of binding of anti-vancomycin Fab fragment to the biosensor surface were measured over a 15 second window beginning 20 seconds postinjection. Data was evaluated by non-linear regression analysis using the solution affinity model built into BIAevaluation 3.0 software (BIAcore, Inc).
The binding affinities of several vancomycin analogs and tracers for anti-vancomycin Fab fragment were determined from solution competition experiments carried out on a BIAcore 2000. Initially, known concentrations of anti-vancomycin Fab fragment (0-22 nM) were injected over the aminoalkyl vancomycin biosensor surface. The initial rate of binding for each anti-vancomycin Fab fragment concentration was obtained by averaging the observed binding rate over a […] window beginning 20 seconds post injection. Data from the first 20 seconds of each sensorgram were omitted due to sample dispersion effects at the start of injections. A plot of initial binding rate versus concentration of anti-vancomycin Fab fragment was fit using a 4-parameter logistic (general model in BIAevaluation 3.0) providing a standard curve. […] A fixed concentration of anti-vancomycin Fab fragment (20 nM) was then mixed with twelve concentrations of each vancomycin analog or tracer and allowed to reach equilibrium. The equilibrium mixtures were individually injected over the aminoalkyl vancomycin biosensor surface, and the concentration of free anti-vancomycin Fab fragment remaining was quantitated by determination of the initial rate of binding to the biosensor surface as described above. A plot of free anti-vancomycin Fab fragment versus total concentration of added analog or tracer provides a competition curve. […] The data points represent the experimentally determined concentrations of free anti-vancomycin Fab fragment in equilibrium solutions at a given concentration of soluble analog or tracer. The curves represent the best nonlinear fit of the data using equation 1 (solution affinity model in BIAevaluation software) below: [formula]
where Fabτ is the concentration of free anti-vancomycin Fab fragment in equilibrium solutions, Fabτ is the total concentration of anti-vancomycin Fab fragment in solution (20 nM), A is the total concentration of added vancomycin analog or tracer, and KD is the equilibrium dissociation constant for the binding of the vancomycin analog or tracer to anti-vancomycin Fab fragment in solution.

[2] = tested on: anti-vancomycin Fab fragment; details: substance immobilized on CM-5 sensor chip
Procedure: (§1) Briefly, a continuous flow of HBS buffer at 10 μL/minute was initiated over the biosensor surface. The carboxymethylated dextran matrix on the sensor surface was activated by a 3.5 minute injection of a solution of 0.05 M HNS and 0.2 M EDAC. […] Blank surfaces were generated under identical conditions omitting the ligand immobilization step.
Initial attempts to generate a biosensor surface involved immobilization of vancomycin to the activated carboxymethyl dextran surface of a CM-5 sensor chip through the primary amine of the vancosamine sugar moiety.

[3] = 0.5 μM
Procedure: as §1
For these studies, an (N^ε-acetyl)KDADA tripeptide containing an aminocaproate linker from the amino terminus was immobilized via amine coupling to an activated carboxymethyl dextran surface of a CM-5 sensor chip.

[4] = cited from earlier work
[5] = in solution, 20 nM Fab fragment, read-out: Equilibrium Dissociation Constant (KD)

| Compound | Kd [1, 5] | further results |
| --- | --- | --- |
| CN[C@H](CC(C)C)C(=O)N[C@H]1C(=O)N[C@@H](CC(N)=O)C(=O)N[C@H]2C(=O)N[C@H]3C(=O)N[C@H](C(=O)N[C@H](C(=O)O)c4cc(O)cc(O)c4-c4cc3ccc4O)[C@H](O)c3ccc(c(Cl)c3)Oc3cc2cc(c3O[C@@H]2O[C@H](CO)[C@@H](O)[C@H](O)[C@H]2O)Oc2ccc(cc2Cl)[C@H]1O [compound 5, Desvancosaminylvancomycin] | 587 ± 27 nM |  |
| N-acetylvancosaminylvancomycin [compound 7] | ≤ 0.2 nM |  |
| CN[C@H](CC(C)C)C(=O)N[C@H]1C(=O)N[C@@H](CC(N)=O)C(=O)N[C@H]2C(=O)N[C@H]3C(=O)N[C@H](C(=O)N[C@H](C(=O)O)c4cc(O)cc(O)c4-c4cc3ccc4O)[C@H](O)c3ccc(c(Cl)c3)Oc3cc2cc(c3O[C@@H]2O[C@H](CO)[C@@H](O)[C@H](O)[C@H]2O[C@H]2C[C@](C)(N)[C@H](O)[C@H](C)O2)Oc2ccc(cc2Cl)[C@H]1O [vancomycin (1), vancomycin] | ≤ 0.2 nM | Kd ([1]; in the presence of (Nα,Nε-diacetyl)KDADA tripeptide (500 μM), read-out: KD): ≤ 0.2 nM; binding capacity (Rumax) of biosensor surface [2]: minimal binding capacity; instrumental response at equilibrium [3]: approximately 50 Rus; half life ([4]; normal patients): 5 to 11 h; half life ([4]; patients with renal insufficiency): 48 to 120 h |

Now from value to compound, other results behind:

| Kd [1, 5] | Compound | further results |
| --- | --- | --- |
| ≥ 50000 nM | AglucoCDP [compound 11] |  |
| 1200 ± 100 nM | CNC(CC(C)C)C(=O)NC1C(=O)NC(CC(N)=O)C(=O)NC2C(=O)NC3C(=O)NC(C(=O)NC(C(=O)O)c4cc(O)cc(O)c4-c4cc3ccc4O)C(O)c3ccc(c(Cl)c3)Oc3cc2cc(c3OC2OC(CO)C(O)C(O)C2OC2CC(C)(NC(=O)CCCN(C(=O)c3c4ccccc4[n+](CCCS(=O)(=O)[O-])c4ccccc34)S(=O)(=O)c3ccc(C)cc3)C(O)C(C)O2)Oc2ccc(cc2Cl)C1O (stereo not shown) [compound 15] |  |
